# Test results reported in patent publication US8703210B1, “Adding calcium and bicarbonate to human blood” (Sang Lads, Inc., priority 2005, dated 2014).
# Like-named read-outs stand apart in the source and are kept apart here.
compound,measurement,setting,value
"O=C([O-])[O-].[Ca+2] [Calcium carbonate, calcium carbonate]",pH,after carbonic acid (in the form of club soda) is added to the mixture,neutral
same,pH,calcium carbonate powder dissolved into water,≤ 9
